According to US9102719B2, “SOGA polynucleotides and polypeptides and uses thereof” (University of North Carolina at Chapel Hill, priority 2009, dated 2015):

How the values were obtained:
SOGA = format: cell-based, mouse
Method: (§1) Mouse livers were perfused with a Krebs-Ringer-HEPES buffer containing collagenase (Sigma-Aldrich). Livers were isolated and cells were dispersed by gentle shaking and filtered through sterile nylon gauze. Cells were washed twice with sterile phosphate-buffered saline and purified by centrifugation in 50% isotonic Percoll (Sigma-Aldrich). Cells were resuspended with Krebs-Ringer-HEPES+Ca^2+ buffer to a total volume of 10 ml. Viability was validated via trypan blue exclusion and routinely exceeded 90%. Freshly isolated mouse hepatocytes were plated at 10^5 cells per well in 12-well culture plates coated with rat tail collagen I (BD Biosciences). […] SOGA siRNA, AICAR (500 μM) or […] (10 nM) were introduced to the media 48 hours before the measurement of glucose production. siRNA sequences corresponding to base pairs 333-351 and 1988-2007 on the open reading frame of murine SOGA were selected using a rational design algorithm (Invitrogen). […] Glucose was measured by colorimetric assay (Autokit Glucose CII) (Brooks et al., J. Biol. Chem. 282:35069 (2007)). Valine in the medium was measured by a UPLC (Waters) coupled TSQ-Quantum ultra triple quad mass analyzer (ThermoFinigan) in the Biomarkers Facility Core at UNC. Valine was measured in selected reaction monitoring mode (SRM) using the MS/MS transition of 118→72.

NOD mice = assay: Insulin injection in diabetic NOD mice; format: in vivo, mouse; settings: single injection of insulin 24 hours earlier
Method: Mice were housed in ventilated isolator cage systems in a pathogen-free barrier facility maintained at 23° C., 55% humidity on a 12-h light/12-h dark cycle. Mice received a standard chow diet consisting of 73% carbohydrate, 18% protein, 4% fat and 5% ash (Purina). Young (3-6 month old) female C57B1/6J calorie restricted (CR) and ad libitum fed (AL) mice were maintained as previously described (Combs et al., Diabetes 52:268 (2003)). Adjustments were made to ensure that CR mice received 70% of the ad libitum food intake. Blood samples were collected at 1300 from the tail tip using heparinized capillary tubes (Fisher) and stored at −20° C. Male ob/ob mice (FVB background strain) received a daily dose of pioglitazone at 0.6 mg/kg BW in 0.025% (w/w) carboxymethylcellulose by oral gavage for 4 days. Control mice received carboxymethylcellulose by oral gavage for 4 days. Blood was collected from the tail tip on day 5 and analyzed for glucose, adiponectin and 25 kDa SOGA. Immediately after the collection of blood samples, ob/ob mice were sacrificed by cervical dislocation for tissue collection. Northern blot analysis for SOGA mRNA and 18S RNA was performed using 20 μg of liver RNA. NOD mice were bred and housed as previously described (Wong et al., J. Immunol. 176:1637 (2006)). […] Glucose was measured by colorimetric assay. Adiponectin and SOGA were measured by SDS-PAGE analysis using 1 μl of plasma. […]

ob/ob mice = assay: Pioglitazone treatment of diabetic ob/ob mice; format: in vivo, mouse; settings: after 4 days of treatment
Method: Mice were housed in ventilated isolator cage systems in a pathogen-free barrier facility maintained at 23° C., 55% humidity on a 12-h light/12-h dark cycle. Mice received a standard chow diet consisting of 73% carbohydrate, 18% protein, 4% fat and 5% ash (Purina). Young (3-6 month old) female C57B1/6J calorie restricted (CR) and ad libitum fed (AL) mice were maintained as previously described (Combs et al., Diabetes 52:268 (2003)). Adjustments were made to ensure that CR mice received 70% of the ad libitum food intake. Blood samples were collected at 1300 from the tail tip using heparinized capillary tubes (Fisher) and stored at −20° C. Male ob/ob mice (FVB background strain) received a daily dose of pioglitazone at 0.6 mg/kg BW in 0.025% (w/w) carboxymethylcellulose by oral gavage for 4 days. Control mice received carboxymethylcellulose by oral gavage for 4 days. Blood was collected from the tail tip on day 5 and analyzed for glucose, adiponectin and 25 kDa SOGA. Immediately after the collection of blood samples, ob/ob mice were sacrificed by cervical dislocation for tissue collection. Northern blot analysis for SOGA mRNA and 18S RNA was performed using 20 μg of liver RNA. NOD mice were bred and housed as previously described (Wong et al., J. Immunol. 176:1637 (2006)). Where indicated, diabetic NOD mice were injected with 5 units of insulin (NPH Human Insulin, Isophane Suspension; 100 U/ml Novolin; Novo Nordisk) 24 hours prior to blood collection. Adiponectin transgenic mice were produced as previously described (Combs et al., Endocrinology 145:367 (2004)). Glucose was measured by colorimetric assay. Adiponectin and SOGA were measured by SDS-PAGE analysis using 1 μl of plasma. […] Experimental procedures were approved by IACUC.

[1] = tested on: primary murine hepatocytes; assay: Hepatocyte glucose production (colorimetric assay); format: cell-based, mouse; settings: adiponectin exposure (adipocyte conditioned media)
Method: as §1

How did the “effect on SOGA level (intracellular and extracellular)” value (SOGA; 500 μM AICAR, with or without adiponectin, n=4 per group) turn out when `NC(=O)c1ncn([C@@H]2O[C@H](CO)[C@@H](O)[C@H]2O)c1N` [AICAR, N1-(β-D-ribofuranosyl)-5-aminoimidazole-4-carboxamide] was run?
Its value is “decrease in SOGA that was blocked by adiponectin exposure”.

“insulin: NPH Human Insulin, Isophane Suspension (Novolin; Novo Nordisk)” was tested. Which “induction of SOGA (circulating 25 kDa SOGA)” value (NOD mice) did it give?
The value was 2 fold.

What does the source list for `CCc1ccc(CCOc2ccc(CC3SC(=O)NC3=O)cc2)nc1` (centres unmarked) [Pioglitazone, pioglitazone]?
concentration of plasma glucose (ob/ob mice; untreated ob/ob mice 450±18 mg/dl, p<0.05): 155 ± 8 mg/dL; elevation of circulating adiponectin (ob/ob mice; daily oral gavage): 3 fold; increase of SOGA mRNA in the liver (ob/ob mice; daily oral gavage, SOGA mRNA/18S RNA): 40%; elevation of circulating SOGA (ob/ob mice; daily oral gavage, plasma 25 kDa SOGA): 3 fold

B1: Adiponectin: hormone provided from adipocyte conditioned media with or without adiponectin (protein, UniProt Q15848 19-244, looked up)
Adiponectin: ETTTQGPGVLLPLPKGACTGWMAGIPGHPGHNGAPGRDGRDGTPGEKGEKGDPGLIGPKGDIGETGVPGAEGPRGFPGIQGRKGEPGEGAYVYRSAFSVGLETYVTIPNMPIRFTKIFYNQQNHYDGSTGKFHCNIPGLYYFAYHITVYMKDVKVSLFKKDKAMLFTYDQYQENNVDQASGSVLLHLEVGDQVWLQVYGEGERNGLYADNDNDSTFTGFLLYHDTN
modifications: in adipocyte conditioned media
B1 was tested. Which “increase of SOGA in primary hepatocytes” value (SOGA) did it give?
The value was 40%.

And the “reduction in glucose production” value [1]?
Its value is 50%.
